{"source": "patent US20240033321A1", "about": "“PULSATIVE GNRH ADMINISTRATION FOR TREATING FOOD INTAKE RELATED DISORDERS” (INSTITUT NATIONAL DE LA SANTÉ ET DE LA RECHERCHE MÉDICALE, priority 2020, published 2024)", "key": {"[1]": {"experiment": "Pulsatile Lutrelef delivery by minipump in Gnrh::Cre; iBot sensitive (overweight) female mice", "format": "in vivo", "details": "sensitive females"}, "[2]": {"experiment": "Pulsatile Lutrelef delivery by minipump in a Gnrh::Cre; iBot sensitive (overlean) male mouse", "format": "in vivo, mice", "details": "one sensitive male (n=1), one pulse every 3 h"}, "[3]": {"experiment": "Pulsatile Lutrelef infusion by subcutaneous programmable mini-pump in obese and lean mice, food intake followed daily", "format": "in vivo", "details": "14 days", "procedure": "Adult lean and obese male mice were housed under specific pathogen-free conditions in a temperature-controlled room (21-22° C.) with a 12 h light/dark cycle. Animals were provided with ad libitum access to food and water. The body weight of the animals and their food intake were followed on a daily base. Animal studies were approved by the Institutional Ethics Committee for the Care and Use of Experimental Animals of the University of Lille; all experiments were performed in accordance with the guidelines for animal use specified by the European Union Council Directive of Sep. 22, 2010 (2010/63/EU). […] To restore a control/lean pattern of GnRH/LH release in obese mice, we next implanted subcutaneous programmable mini-pumps that delivered either Lutrelef (0.25 μg of GnRH per pulse over 10 min given every 3 h) or vehicle to the mice (i.e., the pattern of secretion found in lean mice). Lutrelef is a native GnRH peptide that is clinically used to successfully treat hypogonadotropic infertility (23,24). The regimen was given for 14-days, during which body weight and food intake were followed daily."}}, "data": [{"smiles": "CC(C)C[C@H](NC(=O)CNC(=O)[C@H](Cc1ccc(O)cc1)NC(=O)[C@H](CO)NC(=O)[C@H](Cc1c[nH]c2ccccc12)NC(=O)[C@H](Cc1cnc[nH]1)NC(=O)[C@@H]1CCC(=O)N1)C(=O)N[C@@H](CCCNC(=N)N)C(=O)N1CCC[C@H]1C(=O)NCC(N)=O", "note": "[Lutrelef]", "values": [{"measurement": "substrate use from RER data", "setting": "[1]; dark phase (feeding period) (FIG. 10B)", "value": "restores the use of carbohydrates during the dark phase"}, {"measurement": "bodyweight", "setting": "[1]; one pulse every 2 h, 15 days (FIG. 10A)", "value": "decreased body weight"}, {"measurement": "respiratory exchange ratio (RER)", "setting": "[1]; one pulse every 2 h, 15 days (FIGS. 10B, 10C)", "value": "normalised"}, {"measurement": "food intake", "setting": "[1]; one pulse every 2 h, 15 days (FIGS. 10D, 10E)", "value": "normalised"}, {"measurement": "bodyweight", "setting": "[2]; 15 days (FIG. 11A)", "value": "fully rescues bodyweight"}, {"measurement": "increase in food intake", "setting": "[2]; 15 days (FIGS. 11B, 11C)", "value": 15, "unit": "%"}, {"measurement": "amount of food eaten", "setting": "[3]; lean mice, same pulsatile regimen, compared with vehicle-infused littermates (FIG. 9)", "value": "no observable effect"}, {"measurement": "cumulative food intake", "setting": "[3]; obese male mice, 0.25 μg of GnRH per pulse over 10 min every 3 h, compared with lean mice (FIG. 9)", "value": "normalised their cumulative food intake to levels comparable with lean mice"}]}]}
